Laboratory results: patent US11135193B2, “Composition containing monoacetyldiacylglycerol compound as active ingredient for preventing or treating asthma” (Enzychem Lifesciences Corporation, priority 2013, dated 2021)
Like-named read-outs stand apart in the source and are kept apart here. Marks after values point to notes of the source that are not given here.

Key:
[1] = test system: EL-4 cells; conditions: mouse, 24 h
Description: EL-4 cells that are mouse T lymphoma cells were suspended in 10% fetal bovine serum-containing RPMI medium (Gibco) at a concentration of 5×10^4 cells/ml, and 100 μl of the cell suspension was seeded into each well of a 96-well plate and cultured for 12 hours. Next, the cell culture was treated with monoacetyldiacylglycerol (MADG) compounds at the concentrations shown in Table 1 below, and was then additionally cultured for 24 hours. Next, according to the instruction provided in a CCK-8 kit (Dojindo) capable of counting cells, 10 μl of CCK-8 solution was added to the kit and allowed to react for 30 minutes to 4 hours, and then the absorbance (OD) at 570 nm was measured. In equation 1, the negative control group indicates a cell culture treated with 0.2% DMSO. […] Cell viability (%)=[(OD 570 nm value of MADC-treated group)/(OD 570 nm value of negative control group)]×100 Equation 1

[2] = test system: ovalbumin-induced asthma Balb/c mice; assay: Airway hyperresponsiveness (Pehn, plethysmography) in ovalbumin-induced asthma model; format: in vivo, mouse
Description: (§1) 6-week-old female SPF (specific pathogen-free) Balb/c mice (average weight: 20 g) were purchased from Samtako (Korea). The animals were sufficiently fed with solid feed (antibiotic-free, Samyang Feed Co.) and water until the start point of the experiment, and acclimated at a temperature of 22±2° C., a humidity of 55±15%, and a 12-hr light/12-hr dark cycle for 1 week, and then used in experiments. After 1 week of the acclimation period as described above, the mice were sensitized by intraperitoneal administration of a suspension of 2 mg of aluminum oxide (A8222, Sigma-Aldrich, MO, USA) and 20 μg of ovalbumin (A5503, Sigma-Aldrich) in 200 μl of phosphate buffered saline at two-week intervals. During a period from day 21 to day 23 after the first intraperitoneal administration of ovalbumin, 1% ovalbumin was inhaled into the mice for 30 minutes using an ultrasonic nebulizer (NE-U12, Omron Corp., Japan). At 24 hours after the last ovalbumin challenge, the airway hyperresponsiveness of the mice was measured, and after 48 hours, the mice were anesthetized by intraperitoneal administration of Pentobarbital (50 mg/kg, Entobal, Hanil, Korea). Then, blood was collected through the saphenous vein, and the mice were subjected to tracheostomy. Next, each of the mice was subjected to bronchoalveolar lavage with a total of 1.4 ml of PBS to collect an analytical sample. […] The drug and the sample were administered orally during a period from day 18 to day 23 after the first ovalbumin […] (FIG. 1). Seven mice were used per group.
To measure airway hyperresponsiveness that is one of the major features of asthma, one chamber plethysmography (All Medicus, Korea) was used. The degree of airway resistance was evaluated by measuring enhanced pause (Pehn). For measurement of Pehn, the basis value was measured in a normal breathing state, and then PBS was inhaled for 3 minutes using an ultrasonic nebulizer, after which the Pehn value was measured for 3 minutes.

[3] = test system: serum IgE and ovalbumin-specific IgE; assay: Serum IgE and ovalbumin-specific IgE (ELISA), ovalbumin-induced asthma model; format: in vivo, mouse
Description: as §1
The blood collected through the saphenous vein was incubated at room temperature for 30 minutes, and then centrifuged (3000 rpm, 15 min) to obtain serum. For measurement of serum IgE and ovalbumin-specific IgE, ELISA was used. IgE was measured using commercially available IgE (Biolegend Ins., USA). For measurement of ovalbumin-specific IgE, in a 96-well flat bottom ELISA plate, ovalbumin was dissolved in 0.1 M NaHCO3 buffer (pH 8.3) at a concentration of 20 μg/mL and incubated at 4° C. for 16 hours. Next, PBS containing 1% bovine serum albumin (BSA) was added to suppress nonspecific reactions. The serum sample was diluted at 1:400, allowed to react at room temperature for 2 hours, and then washed with PBS containing 0.05% Tween 20. Horseradish peroxidase (HRP)-conjugated goat […] polyclonal A was diluted 4000-fold and allowed to react at room temperature for 1 hour, and then color development was performed using 3,3′5,5′-tetramethylbenzidine substrate.

[4] = test system: ovalbumin-induced asthma Balb/c mice; assay: Histopathological examination of lung tissue (H&E, PAS staining), ovalbumin-induced asthma model; format: in vivo, mouse
[5] = test system: interleukins (IL-4, IL-5 and IL-13); assay: Th2 cytokines in bronchoalveolar lavage fluid (ELISA), ovalbumin-induced asthma model; format: in vivo, mouse; conditions: BALF
Description: as §1
The production of interleukins (IL-4, IL-5 and IL-13) in the bronchoalveolar lavage fluid isolated from each mouse was measured using a commercially available enzyme-linked immunosorbent assay (ELISA) kit (R&D System, USA). The analysis of each cytokine was performed according to the manufacturer's instruction, and the absorbance at 450 nm was measured using an ELISA reader (Molecular Devices, USA).

[6] = test system: sepsis animal model; conditions: cecal-ligation-puncture sepsis model; cited from earlier work
[7] = test system: ovalbumin-induced asthma Balb/c mice; assay: Inflammatory cell count in bronchoalveolar lavage fluid, ovalbumin-induced asthma model; format: in vivo, mouse; conditions: BALF
Description: as §1
An increase in the number of eosinophils is one of the major features of asthma. Thus, in order to measure the number of eosinophils, the following experiment was performed. The bronchoalveolar lavage fluid from each mouse was stained with trypan blue immediately after collection, and the number of total cells (excluding dead cells) was calculated using a hemocytometer.

CCCCC/C=C\C/C=C\CCCCCCCC(=O)OC(COC(C)=O)COC(=O)CCCCCCCCCCCCCCC (stereo not drawn) [EC-18, 1-palmitoyl-2-linoleoyl-3-acetylglycerol]
EL-4 cell viability (%, mean ± SD) ([1]; 5 μg/ml): 101.94 ± 1.47% | EL-4 cell viability (%, mean ± SD) ([1]; 10 μg/ml): 97.54 ± 8.05% | EL-4 cell viability (%, mean ± SD) ([1]; 20 μg/ml): 91.82 ± 3.48% | EL-4 cell viability (%, mean ± SD) ([1]; 50 μg/ml): 92.67 ± 3.43% | EL-4 cell viability (%, mean ± SD) ([1]; 100 μg/ml): 95.29 ± 2.89% | EL-4 cell viability (%, mean ± SD) ([1]; 200 μg/ml): 99.74 ± 6.14% | Pehn value ([2]; methacholine 0 mg/mL, 30 mg/kg oral): 0.465 ± 0.08 | Pehn value ([2]; methacholine 0 mg/mL, 60 mg/kg oral): 0.436 ± 0.08 | Pehn value ([2]; methacholine 12.5 mg/mL, 30 mg/kg oral): 1.179 ± 0.49 | Pehn value ([2]; methacholine 12.5 mg/mL, 60 mg/kg oral): 0.778 ± 0.15 | Pehn value ([2]; methacholine 25 mg/mL, 30 mg/kg oral): 2.914 ± 0.67 | Pehn value ([2]; methacholine 25 mg/mL, 60 mg/kg oral): 2.436 ± 0.68 | Pehn value ([2]; methacholine 50 mg/mL, 30 mg/kg oral): 4.098 ± 0.78 | Pehn value ([2]; methacholine 50 mg/mL, 60 mg/kg oral): 3.887 ± 0.59 | airway hyperresponsiveness / Pehn value compared to asthma-induced group ([2]; montelukast 30 mg/kg, EC-18 30 mg/kg and 60 mg/kg): significantly decreased | ovalbumin-specific IgE compared to asthma-induced group [3]: significantly decreased | serum IgE compared to asthma-induced group [3]: significantly decreased | IgE ([3]; 30 mg/kg oral): 2.35 ± 0.38 µg/mL | OVA specific IgE ([3]; 30 mg/kg oral): 295.36 ± 77.93 µg/mL | IgE ([3]; 60 mg/kg oral): 2.27 ± 0.46 µg/mL | OVA specific IgE ([3]; 60 mg/kg oral): 287.79 ± 69.53 µg/mL | infiltration of inflammatory cells around the bronchi and blood vessels ([4]; H&E staining): decrease | mucus secretion from goblet cells of the bronchial epithelium ([4]; PAS staining): significantly decreased | secretion of IL-4 compared to asthma-induced group [5]: significantly decreased | secretion of IL-5 compared to asthma-induced group [5]: significantly decreased | secretion of IL-13 compared to asthma-induced group [5]: significantly decreased | Th2 cytokines, IL-4 ([5]; 30 mg/kg oral): 17.89 ± 3.46 pg/mL | Th2 cytokines, IL-5 ([5]; 30 mg/kg oral): 24.12 ± 3.07 pg/mL | Th2 cytokines, IL-13 ([5]; 30 mg/kg oral): 97.27 ± 12.80 pg/mL | Th2 cytokines, IL-4 ([5]; 60 mg/kg oral): 17.09 ± 3.08 pg/mL | Th2 cytokines, IL-5 ([5]; 60 mg/kg oral): 25.02 ± 2.91 pg/mL | Th2 cytokines, IL-13 ([5]; 60 mg/kg oral): 81.10 ± 20.46 pg/mL | survivability ratio of animals [6]: Increases | Inflammatory cell number, Eosinophils ([7]; 30 mg/kg oral): 93 ± 16.4* 10^5 per mouse | Inflammatory cell number, Lymphocytes ([7]; 30 mg/kg oral): 16 ± 8.7 10^5 per mouse | Inflammatory cell number, Macrophages ([7]; 30 mg/kg oral): 82 ± 25.5* 10^5 per mouse | Inflammatory cell number, Neutrophils ([7]; 30 mg/kg oral): 15 ± 8.4 10^5 per mouse | Inflammatory cell number, Total cells ([7]; 30 mg/kg oral): 221 ± 33.5* 10^5 per mouse | Inflammatory cell number, Eosinophils ([7]; 60 mg/kg oral): 112 ± 18.7* 10^5 per mouse | Inflammatory cell number, Lymphocytes ([7]; 60 mg/kg oral): 13 ± 8.7 10^5 per mouse | Inflammatory cell number, Macrophages ([7]; 60 mg/kg oral): 113 ± 27.4 10^5 per mouse | Inflammatory cell number, Neutrophils ([7]; 60 mg/kg oral): 12 ± 6.7 10^5 per mouse | Inflammatory cell number, Total cells ([7]; 60 mg/kg oral): 253 ± 12.8* 10^5 per mouse | number of eosinophils compared to asthma-induced group ([7]; groups administered with EC-18): decrease | number of total inflammatory cells compared to asthma-induced group ([7]; groups administered with EC-18): significant decrease
